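The concentration for 50% growth inhibition is given as GI50. At the TGI there is no net growth.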
What was measured:
Experiment in all cases: DTP human tumour cell line panel, 384-well format
786-0 renal = test system: 786-0 renal
A498 renal = test system: A498 renal
A549 NSCLC = test system: A549 NSCLC
ACHN renal = test system: ACHN renal
BT-549 breast = test system: BT-549 breast
CAKI-1 renal = test system: CAKI-1 renal
CCRF-CEM leukemia = test system: CCRF-CEM leukemia
COLO 205 colon = test system: COLO 205 colon
DU-145 prostate = test system: DU-145 prostate
HCC-2998 colon = test system: HCC-2998 colon
HCT-116 colon = test system: HCT-116 colon
HCT-15 colon = test system: HCT-15 colon
HL-60(TB) leukemia = test system: HL-60(TB) leukemia
HOP-62 NSCLC = test system: HOP-62 NSCLC
HOP-92 NSCLC = test system: HOP-92 NSCLC
HT29 colon = test system: HT29 colon
IGROV1 ovarian = test system: IGROV1 ovarian
K-562 leukemia = test system: K-562 leukemia
KM12 colon = test system: KM12 colon
LOX IMVI melanoma = test system: LOX IMVI melanoma
M14 melanoma = test system: M14 melanoma
MALME-3M melanoma = test system: MALME-3M melanoma
MCF7 breast = test system: MCF7 breast
MDA-MB-231 breast = test system: MDA-MB-231 breast
MDA-MB-435 melanoma = test system: MDA-MB-435 melanoma
MDA-MB-468 breast = test system: MDA-MB-468 breast
MOLT-4 leukemia = test system: MOLT-4 leukemia
NCI-H226 lung = test system: NCI-H226 lung
NCI-H23 lung = test system: NCI-H23 lung
NCI-H322M lung = test system: NCI-H322M lung
NCI-H460 NSCLC = test system: NCI-H460 NSCLC
NCI-H522 lung = test system: NCI-H522 lung
NCI/ADR-RES ovarian = test system: NCI/ADR-RES ovarian
OVCAR-3 ovarian = test system: OVCAR-3 ovarian
OVCAR-4 ovarian = test system: OVCAR-4 ovarian
OVCAR-5 ovarian = test system: OVCAR-5 ovarian
OVCAR-8 ovarian = test system: OVCAR-8 ovarian
PC-3 prostate = test system: PC-3 prostate
RPMI-8226 leukemia = test system: RPMI-8226 leukemia
RXF 393 renal = test system: RXF 393 renal
SF-268 CNS = test system: SF-268 CNS
SF-295 CNS = test system: SF-295 CNS
SF-539 CNS = test system: SF-539 CNS
SK-MEL-2 melanoma = test system: SK-MEL-2 melanoma
SK-MEL-28 melanoma = test system: SK-MEL-28 melanoma
SK-MEL-5 melanoma = test system: SK-MEL-5 melanoma
SK-OV-3 ovarian = test system: SK-OV-3 ovarian
SN12C renal = test system: SN12C renal
SNB-19 CNS = test system: SNB-19 CNS
SR leukemia = test system: SR leukemia
SW-620 colon = test system: SW-620 colon
T-47D breast = test system: T-47D breast
TK-10 renal = test system: TK-10 renal
U251 glioblastoma = test system: U251 glioblastoma
UACC-257 melanoma = test system: UACC-257 melanoma
UACC-62 melanoma = test system: UACC-62 melanoma
UO-31 renal = test system: UO-31 renal

CN(C)CC[C@H](CSc1ccccc1)Nc1ccc(S(=O)(=O)NC(=O)c2ccc(N3CCN(Cc4ccccc4-c4ccc(Cl)cc4)CC3)cc2)cc1[N+](=O)[O-]
GI50 ([…]-0 renal): 1.94 µM
TGI (786-0 renal): 4.74 µM
GI50 (A498 renal): 1.42 µM
TGI (A498 renal): 2.98 µM
GI50 (A549 NSCLC): 3.14 µM
TGI (A549 NSCLC): 53.2 µM
GI50 (ACHN renal): 5.2 µM
TGI (ACHN renal): 62.8 µM
GI50 (BT-549 breast): 2.23 µM
TGI (BT-549 breast): 6.13 µM
GI50 (CAKI-1 renal): 1.83 µM
TGI (CAKI-1 renal): 3.73 µM
GI50 (CCRF-CEM leukemia): 0.145 µM
TGI (CCRF-CEM leukemia): 0.372 µM
GI50 (COLO 205 colon): 1.68 µM
TGI (COLO 205 colon): 3.12 µM
GI50 (DU-145 prostate): 4.2 µM
TGI (DU-145 prostate): > 100 µM
GI50 (HCC-2998 colon): 0.232 µM
TGI (HCC-2998 colon): 0.75 µM
GI50 (HCT-116 colon): 1.95 µM
TGI (HCT-116 colon): 4.07 µM
GI50 (HCT-15 colon): 1.68 µM
TGI (HCT-15 colon): 3.17 µM
GI50 (HL-60(TB) leukemia): 0.0477 µM
TGI (HL-60(TB) leukemia): 0.218 µM
GI50 (HOP-62 NSCLC): 3.18 µM
TGI (HOP-62 NSCLC): 25.4 µM
GI50 (HOP-92 NSCLC): 0.177 µM
TGI (HOP-92 NSCLC): 1.05 µM
GI50 (HT29 colon): 2.9 µM
TGI (HT29 colon): 13.3 µM
GI50 (IGROV1 ovarian): 1.48 µM
TGI (IGROV1 ovarian): 3.59 µM
GI50 (K-562 leukemia): 2.17 µM
TGI (K-562 leukemia): 5.21 µM
GI50 (KM12 colon): 2.05 µM
TGI (KM12 colon): 6.17 µM
GI50 (LOX IMVI melanoma): 2.36 µM
TGI (LOX IMVI melanoma): 4.73 µM
GI50 (M14 melanoma): 2.79 µM
TGI (M14 melanoma): 8.57 µM
GI50 (MALME-3M melanoma): 3.15 µM
TGI (MALME-3M melanoma): 11.2 µM
GI50 (MCF7 breast): 1.87 µM
TGI (MCF7 breast): 4.93 µM
GI50 (MDA-MB-231 breast): 1.04 µM
TGI (MDA-MB-231 breast): 2.39 µM
GI50 (MDA-MB-435 melanoma): 2.33 µM
TGI (MDA-MB-435 melanoma): 6.07 µM
GI50 (MDA-MB-468 breast): 1.33 µM
TGI (MDA-MB-468 breast): 3.42 µM
GI50 (MOLT-4 leukemia): 0.119 µM
TGI (MOLT-4 leukemia): 0.252 µM
GI50 (NCI-H226 lung): 1.66 µM
TGI (NCI-H226 lung): 3.86 µM
GI50 (NCI-H23 lung): 2.37 µM
TGI (NCI-H23 lung): 7.46 µM
GI50 (NCI-H322M lung): 2.34 µM
TGI (NCI-H322M lung): 5.7 µM
GI50 (NCI-H460 NSCLC): 3.65 µM
TGI (NCI-H460 NSCLC): 14.3 µM
GI50 (NCI-H522 lung): 4.36 µM
TGI (NCI-H522 lung): 60.7 µM
GI50 (NCI/ADR-RES ovarian): > 100 µM
TGI (NCI/ADR-RES ovarian): > 100 µM
GI50 (OVCAR-3 ovarian): 1.63 µM
TGI (OVCAR-3 ovarian): 3.37 µM
GI50 (OVCAR-4 ovarian): 3 µM
TGI (OVCAR-4 ovarian): 9.08 µM
GI50 (OVCAR-5 ovarian): 2.01 µM
TGI (OVCAR-5 ovarian): 4.19 µM
GI50 (OVCAR-8 ovarian): 2.29 µM
TGI (OVCAR-8 ovarian): 6.24 µM
GI50 (PC-3 prostate): 1.78 µM
TGI (PC-3 prostate): 3.48 µM
GI50 (RPMI-8226 leukemia): 0.239 µM
TGI (RPMI-8226 leukemia): 0.444 µM
GI50 (RXF 393 renal): 0.258 µM
TGI (RXF 393 renal): 1.4 µM
GI50 (SF-268 CNS): 3.17 µM
TGI (SF-268 CNS): > 100 µM
GI50 (SF-295 CNS): 2.46 µM
TGI (SF-295 CNS): 6.83 µM
GI50 (SF-539 CNS): 5.46 µM
TGI (SF-539 CNS): 100 µM
GI50 (SK-MEL-2 melanoma): 1.64 µM
TGI (SK-MEL-2 melanoma): 3.64 µM
GI50 (SK-MEL-28 melanoma): 2.77 µM
TGI (SK-MEL-28 melanoma): 6.76 µM
GI50 (SK-MEL-5 melanoma): 1.3 µM
TGI (SK-MEL-5 melanoma): 2.64 µM
GI50 (SK-OV-3 ovarian): 2.31 µM
TGI (SK-OV-3 ovarian): 6.3 µM
GI50 (SN12C renal): 2.26 µM
TGI (SN12C renal): 5.79 µM
GI50 (SNB-19 CNS): 3.11 µM
TGI (SNB-19 CNS): > 100 µM
GI50 (SR leukemia): 0.223 µM
TGI (SR leukemia): 1.48 µM
GI50 (SW-620 colon): 3.52 µM
TGI (SW-620 colon): 12.2 µM
GI50 (T-47D breast): 2.41 µM
TGI (T-47D breast): 9.13 µM
GI50 (TK-10 renal): 1.98 µM
TGI (TK-10 renal): 4.79 µM
GI50 (U251 glioblastoma): 2.56 µM
TGI (U251 glioblastoma): 7.35 µM
GI50 (UACC-257 melanoma): 1.49 µM
TGI (UACC-257 melanoma): 3.71 µM
GI50 (UACC-62 melanoma): 3.02 µM
TGI (UACC-62 melanoma): 10.5 µM
GI50 (UO-31 renal): 1.79 µM
TGI (UO-31 renal): 3.58 µM
